Assay results reported in patent publication US20050158425A1, “Thin mouthfeel calcium-fortified beverage containing calcium lactate gluconate citrate” (PURAC BIOCHEM BV, priority 2003, published 2005).

How the values were obtained:
[1] = Hygroscopicity of powdered samples; assay type: physicochemical; settings: for water pick up (hygroscopicity): 20° C., 60% relative humidity, 21 days, powdered sample; for state of powdered sample (hygroscopicity): 35° C., 70% relative humidity
Method: The hygroscopicities of powdered samples of calcium lactate gluconate citrate (in a ratio calcium lactate:calcium gluconate:calcium citrate of 12.7:47.8:39.5) and calcium lactate gluconate (lactate/gluconate ratio 20/80) were measured at 20° C. at 60% relative humidity and at 35° C. at 70% relative humidity. At 20° C. at 60% relative humidity both samples hardly pick up any water (about 1%) for 21 days.

[2] = Dissolution rate of calcium-fortified beverages by conductivity; assay type: physicochemical; settings: 20° C.
Method: The dissolution rates of calcium lactate gluconate (ratio Ca lactate:Ca gluconate 80/20) and calcium lactate gluconate citrate (in a ratio calcium lactate:calcium gluconate:calcium citrate of 12.7:47.8:39.5) beverages were determined by measuring the conductivity and calculating the dissolution rate from the conductivity indices. Said beverages contained 10, and 30% R.D.I respectively in water at 20° C., 30% in apple juice at 20° C. and 10% in cranberry juice at 20° C.

Row | SMILES | water pick up (hygroscopicity) [1] | state of powdered sample (hygroscopicity) [1] | Dissolution time in seconds (at conductivity 99.5) ([2]; Apple juice (30% RDI)) | Dissolution time in seconds (at conductivity 99.5) ([2]; Cranberry juice (10% RDI)) | Dissolution time in seconds (at conductivity 99.5) ([2]; Water (10% RDI)) | hygroscopicity ([1]; at increased temperatures)
1 | CC(O)C(=O)[O-].O=C([O-])[C@H](O)[C@@H](O)[C@H](O)[C@H](O)CO.[Ca+2] [calcium lactate gluconate (20/80), calcium lactate gluconate] | about 1% | completely liquefied within 2 days | – | – | – | –
2 | CC(O)C(=O)[O-].O=C([O-])[C@H](O)[C@@H](O)[C@H](O)[C@H](O)CO.[Ca+2] [Calcium lactate gluconate, calcium lactate gluconate] | – | – | 25 s | 34 s | 35 s | –
3 | CC(O)C(=O)O.O=C(O)[C@H](O)[C@@H](O)[C@H](O)[C@H](O)CO.O=C([O-])CC(O)(CC(=O)[O-])C(=O)O.[Ca+2] [calcium lactate gluconate citrate] | about 1% | still had the powdered structure and appeared unchanged after 20 days | 30 s | 27 s | 23 s | very low hygroscopicity
